Assay results taken from EP4722207A1, “OXOISOINDOLINYL-SUBSTITUTED TETRAHYDROPYRIMIDINEDIONE DERIVATIVE AND USE THEREOF” (Gluetacs Therapeutics (Shanghai) Co., Ltd., priority 2023, dated 2024).

Key:
Assay type in all cases: cell-based
Details in all cases: 24 hours of compound treatment, 50 nM and 500 nM
CK1α = target: T1, CK1α (Homo sapiens, UniProt P48729+Q96SW2); experiment: Western-blot assay, substrate protein degradation in hPBMCs: CK1α
T1 construct: effects of the compounds of the present disclosure on the expression of target proteins in cells; endogenous in cells; host or cells: human PBMCs (hPBMCs)

IKZF3 = target: T2, IKZF3 (Homo sapiens, UniProt Q96SW2+Q9UKT9); experiment: Western-blot assay, substrate protein degradation in hPBMCs: IKZF3
T2 construct: effects of the compounds of the present disclosure on the expression of target proteins in cells; endogenous in cells; host or cells: human PBMCs (hPBMCs)

IKZF2 = target: T3, IKZF2 (Homo sapiens, UniProt Q96SW2+Q9UKS7); experiment: Western-blot assay, substrate protein degradation in hPBMCs: IKZF2
T3 construct: effects of the compounds of the present disclosure on the expression of target proteins in cells; endogenous in cells; host or cells: human PBMCs (hPBMCs)

IKZF1 = target: T4, IKZF1 (Homo sapiens, UniProt Q13422+Q96SW2); experiment: Western-blot assay, substrate protein degradation in hPBMCs: IKZF1
T4 construct: effects of the compounds of the present disclosure on the expression of target proteins in cells; endogenous in cells; host or cells: human PBMCs (hPBMCs)

WEE1 = target: T5, WEE1 (Homo sapiens, UniProt P30291+Q96SW2); experiment: Western-blot assay, substrate protein degradation in hPBMCs: WEE1
T5 construct: effects of the compounds of the present disclosure on the expression of target proteins in cells; endogenous in cells; host or cells: human PBMCs (hPBMCs)

GSPT1 = target: T6, GSPT1 (Homo sapiens, UniProt P15170+Q96SW2); experiment: Western-blot assay, substrate protein degradation in hPBMCs: GSPT1
T6 construct: effects of the compounds of the present disclosure on the expression of target proteins in cells; endogenous in cells; host or cells: human PBMCs (hPBMCs)
T6 sequence (P15170 whole entry): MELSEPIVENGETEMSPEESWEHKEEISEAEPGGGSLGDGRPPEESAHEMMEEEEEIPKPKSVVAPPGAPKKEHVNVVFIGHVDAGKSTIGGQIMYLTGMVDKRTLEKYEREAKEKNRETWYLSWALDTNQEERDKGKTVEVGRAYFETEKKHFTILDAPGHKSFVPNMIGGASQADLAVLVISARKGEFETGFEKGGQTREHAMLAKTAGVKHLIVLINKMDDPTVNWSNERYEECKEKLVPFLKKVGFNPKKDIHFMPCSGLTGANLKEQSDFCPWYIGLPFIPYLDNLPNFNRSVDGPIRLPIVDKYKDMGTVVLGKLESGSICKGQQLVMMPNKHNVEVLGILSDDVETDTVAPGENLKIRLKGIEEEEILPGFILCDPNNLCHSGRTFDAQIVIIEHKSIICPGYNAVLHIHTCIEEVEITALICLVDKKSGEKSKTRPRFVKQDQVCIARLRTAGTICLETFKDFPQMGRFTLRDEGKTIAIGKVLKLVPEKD
T6 sequence (Q96SW2 whole entry): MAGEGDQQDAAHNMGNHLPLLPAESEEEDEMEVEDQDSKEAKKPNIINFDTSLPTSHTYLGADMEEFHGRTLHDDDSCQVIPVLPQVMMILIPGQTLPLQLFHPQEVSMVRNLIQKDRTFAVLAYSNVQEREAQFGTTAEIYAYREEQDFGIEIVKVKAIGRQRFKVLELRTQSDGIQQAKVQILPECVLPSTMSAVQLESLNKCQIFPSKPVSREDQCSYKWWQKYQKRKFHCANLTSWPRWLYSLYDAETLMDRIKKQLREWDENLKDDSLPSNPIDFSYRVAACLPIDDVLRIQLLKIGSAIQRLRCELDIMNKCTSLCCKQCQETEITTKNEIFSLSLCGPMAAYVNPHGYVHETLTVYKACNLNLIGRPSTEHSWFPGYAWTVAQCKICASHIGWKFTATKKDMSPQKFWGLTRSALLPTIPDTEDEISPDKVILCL
T6 sequence (Q16531 whole entry partner): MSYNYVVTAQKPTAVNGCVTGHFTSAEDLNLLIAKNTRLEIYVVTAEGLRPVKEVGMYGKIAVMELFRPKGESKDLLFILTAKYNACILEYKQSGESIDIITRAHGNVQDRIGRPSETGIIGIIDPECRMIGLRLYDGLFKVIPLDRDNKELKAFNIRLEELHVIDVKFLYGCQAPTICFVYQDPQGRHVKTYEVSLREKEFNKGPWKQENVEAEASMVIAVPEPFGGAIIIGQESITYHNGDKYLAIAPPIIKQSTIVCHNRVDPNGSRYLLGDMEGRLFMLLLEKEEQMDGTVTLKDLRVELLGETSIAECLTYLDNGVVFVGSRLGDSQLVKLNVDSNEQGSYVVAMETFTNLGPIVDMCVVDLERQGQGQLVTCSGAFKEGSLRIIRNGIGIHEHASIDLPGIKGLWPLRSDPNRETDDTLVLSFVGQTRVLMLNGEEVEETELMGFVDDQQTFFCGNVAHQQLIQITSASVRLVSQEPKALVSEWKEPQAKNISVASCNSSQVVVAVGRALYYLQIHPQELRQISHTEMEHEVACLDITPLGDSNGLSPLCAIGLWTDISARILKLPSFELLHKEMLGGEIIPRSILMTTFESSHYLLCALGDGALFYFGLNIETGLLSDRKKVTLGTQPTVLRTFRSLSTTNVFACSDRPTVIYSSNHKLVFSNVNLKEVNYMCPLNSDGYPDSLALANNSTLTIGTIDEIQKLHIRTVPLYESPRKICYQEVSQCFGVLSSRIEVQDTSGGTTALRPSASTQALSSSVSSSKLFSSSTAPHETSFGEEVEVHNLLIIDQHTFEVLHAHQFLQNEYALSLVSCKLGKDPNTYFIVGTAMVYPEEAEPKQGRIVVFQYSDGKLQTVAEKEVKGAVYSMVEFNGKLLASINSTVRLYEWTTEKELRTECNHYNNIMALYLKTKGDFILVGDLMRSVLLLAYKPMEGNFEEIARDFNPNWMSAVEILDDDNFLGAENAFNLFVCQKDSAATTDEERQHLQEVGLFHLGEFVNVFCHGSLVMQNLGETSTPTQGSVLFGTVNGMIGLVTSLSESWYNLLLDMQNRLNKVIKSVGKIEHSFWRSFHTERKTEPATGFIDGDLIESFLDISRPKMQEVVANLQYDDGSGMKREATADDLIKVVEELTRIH

T5 sequence (P30291 whole entry): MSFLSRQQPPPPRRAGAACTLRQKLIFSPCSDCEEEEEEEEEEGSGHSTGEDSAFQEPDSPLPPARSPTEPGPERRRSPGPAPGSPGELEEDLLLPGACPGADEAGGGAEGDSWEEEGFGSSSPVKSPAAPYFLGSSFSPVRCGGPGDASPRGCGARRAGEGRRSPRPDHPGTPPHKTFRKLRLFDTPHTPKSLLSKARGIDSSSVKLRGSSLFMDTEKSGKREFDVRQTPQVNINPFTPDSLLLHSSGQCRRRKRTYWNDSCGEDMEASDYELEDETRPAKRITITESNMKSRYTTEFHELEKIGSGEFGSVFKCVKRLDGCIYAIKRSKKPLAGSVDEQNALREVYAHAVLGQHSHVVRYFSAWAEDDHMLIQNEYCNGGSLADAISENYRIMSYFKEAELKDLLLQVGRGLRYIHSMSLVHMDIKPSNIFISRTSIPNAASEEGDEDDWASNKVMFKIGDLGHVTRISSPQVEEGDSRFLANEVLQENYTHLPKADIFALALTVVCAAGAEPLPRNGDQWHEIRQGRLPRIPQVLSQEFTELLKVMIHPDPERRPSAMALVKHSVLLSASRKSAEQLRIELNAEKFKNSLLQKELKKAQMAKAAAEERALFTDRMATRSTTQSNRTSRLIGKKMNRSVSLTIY
T5 sequence (Q96SW2 whole entry): as the sequence (Q96SW2 whole entry) above
T5 sequence (Q16531 whole entry partner): as the sequence (Q16531 whole entry partner) above
T4 sequence (Q13422 whole entry): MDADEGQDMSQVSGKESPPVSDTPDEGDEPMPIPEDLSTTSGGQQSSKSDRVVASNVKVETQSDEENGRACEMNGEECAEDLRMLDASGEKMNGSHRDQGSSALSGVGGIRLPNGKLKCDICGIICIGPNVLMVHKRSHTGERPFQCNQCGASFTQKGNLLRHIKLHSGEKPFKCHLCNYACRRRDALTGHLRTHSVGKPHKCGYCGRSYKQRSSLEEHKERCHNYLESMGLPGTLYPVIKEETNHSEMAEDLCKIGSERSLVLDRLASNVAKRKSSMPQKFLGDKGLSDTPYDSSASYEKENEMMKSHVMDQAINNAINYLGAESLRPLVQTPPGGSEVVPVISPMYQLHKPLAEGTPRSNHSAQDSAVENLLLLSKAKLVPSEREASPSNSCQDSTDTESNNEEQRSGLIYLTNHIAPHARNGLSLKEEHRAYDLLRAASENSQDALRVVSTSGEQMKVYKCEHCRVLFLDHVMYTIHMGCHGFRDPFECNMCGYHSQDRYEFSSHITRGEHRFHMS
T4 sequence (Q96SW2 whole entry): as the sequence (Q96SW2 whole entry) above
T4 sequence (Q16531 whole entry partner): as the sequence (Q16531 whole entry partner) above
T1 sequence (P48729 whole entry): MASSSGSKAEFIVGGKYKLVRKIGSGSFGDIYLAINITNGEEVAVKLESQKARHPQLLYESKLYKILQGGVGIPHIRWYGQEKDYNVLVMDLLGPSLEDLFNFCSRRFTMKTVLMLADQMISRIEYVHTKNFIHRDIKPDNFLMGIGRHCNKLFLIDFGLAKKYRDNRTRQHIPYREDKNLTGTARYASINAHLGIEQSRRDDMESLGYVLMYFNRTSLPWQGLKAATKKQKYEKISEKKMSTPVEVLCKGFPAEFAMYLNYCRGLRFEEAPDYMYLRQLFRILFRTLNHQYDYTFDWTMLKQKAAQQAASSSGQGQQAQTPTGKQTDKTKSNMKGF
T1 sequence (Q96SW2 whole entry): as the sequence (Q96SW2 whole entry) above
T1 sequence (Q16531 whole entry partner): as the sequence (Q16531 whole entry partner) above
T3 sequence (Q9UKS7 whole entry): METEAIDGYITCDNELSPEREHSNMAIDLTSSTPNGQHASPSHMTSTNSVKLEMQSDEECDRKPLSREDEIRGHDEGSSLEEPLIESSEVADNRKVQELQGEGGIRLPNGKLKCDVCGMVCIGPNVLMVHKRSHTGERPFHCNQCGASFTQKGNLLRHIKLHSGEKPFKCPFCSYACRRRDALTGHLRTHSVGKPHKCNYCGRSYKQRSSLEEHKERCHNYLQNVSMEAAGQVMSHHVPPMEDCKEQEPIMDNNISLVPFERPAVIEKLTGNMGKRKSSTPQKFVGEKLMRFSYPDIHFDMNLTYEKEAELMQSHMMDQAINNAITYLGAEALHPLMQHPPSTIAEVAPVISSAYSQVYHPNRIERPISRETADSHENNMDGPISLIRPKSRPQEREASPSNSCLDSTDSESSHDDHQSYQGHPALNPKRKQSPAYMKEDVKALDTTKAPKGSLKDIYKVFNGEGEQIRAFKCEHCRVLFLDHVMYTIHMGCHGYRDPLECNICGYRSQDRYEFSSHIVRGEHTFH
T3 sequence (Q96SW2 whole entry): as the sequence (Q96SW2 whole entry) above
T3 sequence (Q16531 whole entry partner): as the sequence (Q16531 whole entry partner) above

SMILES	substrate protein remaining % CK1α (CK1α)	substrate protein remaining % IKZF3 (IKZF3)	substrate protein remaining % IKZF2 (IKZF2)	substrate protein remaining % IKZF1 (IKZF1)	substrate protein remaining % WEE1 (WEE1)	substrate protein remaining % GSPT1 (GSPT1)
O=C1CCN(N2Cc3cc(CN4CCC(n5cnc6cc(F)ccc65)CC4)ccc3C2=O)C(=O)N1 [GT-07503, 1-(5-((4-(5-fluoro-1H-benzo[d]imidazol-1-yl)piperidin-1-yl)methyl)-1-oxoisoindolin-2-yl)dihydropyrimidine-2,4(1H,3H)-dione]	A (0% ≤ substrate protein remaining % ≤ 80%)	B (80%< substrate protein remaining %≤ 100%)	B (80%< substrate protein remaining %≤ 100%)	A (0% ≤ substrate protein remaining % ≤ 80%)	A (0% ≤ substrate protein remaining % ≤ 80%)	A (0% ≤ substrate protein remaining % ≤ 80%)
O=C1CCN(N2Cc3cc(CN4CCC(c5n[nH]c6cc(F)ccc56)CC4)ccc3C2=O)C(=O)N1 [GT-07508, 1-(5-((4-(6-fluoro-1H-indazol-3-yl)piperidin-1-yl)methyl)-1-oxoisoindolin-2-yl)dihydropyrimidine-2,4(1H,3H)-dione]	A (0% ≤ substrate protein remaining % ≤ 80%)	B (80%< substrate protein remaining %≤ 100%)	A (0% ≤ substrate protein remaining % ≤ 80%)	A (0% ≤ substrate protein remaining % ≤ 80%)	A (0% ≤ substrate protein remaining % ≤ 80%)	A (0% ≤ substrate protein remaining % ≤ 80%)
O=C1CCN(N2C(=O)c3ccc(CN4CCC(c5noc6ccccc56)CC4)cc3C2=O)C(=O)N1 [GT-07522, 5-((4-(benzo[d]isoxazol-3-yl)piperidin-1-yl)methyl)-2-(2,4-dioxotetrahydropyrimidin-1(2H)-yl)isoindoline-1,3-dione]	A (0% ≤ substrate protein remaining % ≤ 80%)	B (80%< substrate protein remaining %≤ 100%)	A (0% ≤ substrate protein remaining % ≤ 80%)	A (0% ≤ substrate protein remaining % ≤ 80%)	A (0% ≤ substrate protein remaining % ≤ 80%)	A (0% ≤ substrate protein remaining % ≤ 80%)
O=C1CCN(N2C(=O)c3ccc(CN4CCC(c5ccon5)CC4)cc3C2=O)C(=O)N1 [GT-07523, 2-(2,4-dioxotetrahydropyrimidin-1(2H)-yl)-5-((4-(isoxazol-3-yl)piperidin-1-yl)methyl)isoindoline-1,3-dione]	A (0% ≤ substrate protein remaining % ≤ 80%)	B (80%< substrate protein remaining %≤ 100%)	A (0% ≤ substrate protein remaining % ≤ 80%)	A (0% ≤ substrate protein remaining % ≤ 80%)	A (0% ≤ substrate protein remaining % ≤ 80%)	A (0% ≤ substrate protein remaining % ≤ 80%)
O=C1CCN(N2C(=O)c3ccc(CN4CCN(c5noc6cc(F)ccc56)CC4)cc3C2=O)C(=O)N1 [GT-07524, 2-(2,4-dioxotetrahydropyrimidin-1(2H)-yl)-5-((4-(6-fluorobenzo[d]isoxazol-3-yl)piperazin-1-yl)methyl)isoindoline-1,3-dione]	B (80%< substrate protein remaining %≤ 100%)	B (80%< substrate protein remaining %≤ 100%)	A (0% ≤ substrate protein remaining % ≤ 80%)	A (0% ≤ substrate protein remaining % ≤ 80%)	A (0% ≤ substrate protein remaining % ≤ 80%)	A (0% ≤ substrate protein remaining % ≤ 80%)
O=C1CCN(N2C(=O)c3ccc(CN4CCN(c5noc6ccncc56)CC4)cc3C2=O)C(=O)N1 [GT-07525, 2-(2,4-dioxotetrahydropyrimidin-1(2H)-yl)-5-((4-(isoxazolo[4,5-c]pyridin-3-yl)piperazin-1-yl)methyl)isoindoline-1,3-dione]	A (0% ≤ substrate protein remaining % ≤ 80%)	B (80%< substrate protein remaining %≤ 100%)	B (80%< substrate protein remaining %≤ 100%)	B (80%< substrate protein remaining %≤ 100%)	B (80%< substrate protein remaining %≤ 100%)	A (0% ≤ substrate protein remaining % ≤ 80%)
O=C1CCN(N2C(=O)c3ccc(CN4CCN(c5nsc6cc(F)ccc56)CC4)cc3C2=O)C(=O)N1 [GT-07526, 2-(2,4-dioxotetrahydropyrimidin-1(2H)-yl)-5-((4-(6-fluorobenzo[d]isothiazol-3-yl)piperazin-1-yl)methyl)isoindoline-1,3-dione]	A (0% ≤ substrate protein remaining % ≤ 80%)	B (80%< substrate protein remaining %≤ 100%)	B (80%< substrate protein remaining %≤ 100%)	B (80%< substrate protein remaining %≤ 100%)	B (80%< substrate protein remaining %≤ 100%)	A (0% ≤ substrate protein remaining % ≤ 80%)
O=C1CCN(N2C(=O)c3ccc(CN4CCN(c5n[nH]c6cc(F)ccc56)CC4)cc3C2=O)C(=O)N1 [GT-07527, 2-(2,4-dioxotetrahydropyrimidin-1(2H)-yl)-5-((4-(6-fluoro-1H-indazol-3-yl)piperazin-1-yl)methyl)isoindoline-1,3-dione]	A (0% ≤ substrate protein remaining % ≤ 80%)	B (80%< substrate protein remaining %≤ 100%)	B (80%< substrate protein remaining %≤ 100%)	B (80%< substrate protein remaining %≤ 100%)	B (80%< substrate protein remaining %≤ 100%)	A (0% ≤ substrate protein remaining % ≤ 80%)
O=C1CCN(N2C(=O)c3ccc(CN4CCN(c5c[nH]c6ncccc56)CC4)cc3C2=O)C(=O)N1 [GT-07528, 5-((4-(1H-pyrrolo[2,3-b]pyridin-3-yl)piperazin-1-yl)methyl)-2-(2,4-dioxotetrahydropyrimidin-1(2H)-yl)isoindoline-1,3-dione]	A (0% ≤ substrate protein remaining % ≤ 80%)	B (80%< substrate protein remaining %≤ 100%)	B (80%< substrate protein remaining %≤ 100%)	B (80%< substrate protein remaining %≤ 100%)	B (80%< substrate protein remaining %≤ 100%)	A (0% ≤ substrate protein remaining % ≤ 80%)
O=C1CCN(N2C(=O)c3ccc(CN4CCC(n5cnc6cc(F)ccc65)CC4)cc3C2=O)C(=O)N1 [GT-07529, 2-(2,4-dioxotetrahydropyrimidin-1(2H)-yl)-5-((4-(5-fluoro-1H-benzo[d]imidazol-1-yl)piperidin-1-yl)methyl)isoindoline-1,3-dione]	A (0% ≤ substrate protein remaining % ≤ 80%)	B (80%< substrate protein remaining %≤ 100%)	B (80%< substrate protein remaining %≤ 100%)	B (80%< substrate protein remaining %≤ 100%)	B (80%< substrate protein remaining %≤ 100%)	A (0% ≤ substrate protein remaining % ≤ 80%)
O=C1CCN(N2C(=O)c3ccc(CN4CCC(c5n[nH]c6cc(F)ccc56)CC4)cc3C2=O)C(=O)N1 [GT-07530, 2-(2,4-dioxotetrahydropyrimidin-1(2H)-yl)-5-((4-(6-fluoro-1H-indazol-3-yl)piperidin-1-yl)methyl)isoindoline-1,3-dione]	A (0% ≤ substrate protein remaining % ≤ 80%)	B (80%< substrate protein remaining %≤ 100%)	B (80%< substrate protein remaining %≤ 100%)	B (80%< substrate protein remaining %≤ 100%)	A (0% ≤ substrate protein remaining % ≤ 80%)	A (0% ≤ substrate protein remaining % ≤ 80%)
O=C1CCN(N2Cc3cc(CN4CCN(c5n[nH]c6cc(F)ccc56)CC4)ccc3C2=O)C(=O)N1 [GT-07545, 1-(5-((4-(6-fluoro-1H-indazol-3-yl)piperazin-1-yl)methyl)-1-oxoisoindolin-2-yl)dihydropyrimidine-2,4(1H,3H)-dione]	A (0% ≤ substrate protein remaining % ≤ 80%)	B (80%< substrate protein remaining %≤ 100%)	B (80%< substrate protein remaining %≤ 100%)	A (0% ≤ substrate protein remaining % ≤ 80%)	A (0% ≤ substrate protein remaining % ≤ 80%)	A (0% ≤ substrate protein remaining % ≤ 80%)
O=C1CCN(N2Cc3cc(CN4CCC(c5c[nH]c6ncccc56)CC4)ccc3C2=O)C(=O)N1 [GT-07576, 1-(5-((4-(1H-pyrrolo[2,3-b]pyridin-3-yl)piperidin-1-yl)methyl)-1-oxoisoindolin-2-yl)dihydropyrimidine-2,4(1H,3H)-dione]	A (0% ≤ substrate protein remaining % ≤ 80%)	B (80%< substrate protein remaining %≤ 100%)	A (0% ≤ substrate protein remaining % ≤ 80%)	A (0% ≤ substrate protein remaining % ≤ 80%)	A (0% ≤ substrate protein remaining % ≤ 80%)	A (0% ≤ substrate protein remaining % ≤ 80%)
